From US20140045779A1, “COMPOUNDS CONTAINING AN ALICYCLIE STRUCTURE AND ANTI-TUMOR APPLICATION” (priority 2011, published 2014)
≈ marks a conversion by molar mass, not a printed value. Where two headings read alike, the source gives them in different places.

Legend:
[1] = tested on: MCF7 cells (breast cancer cells); assay: In vitro anti-cancer cell experiment (MTT), MCF7; conditions: Homo sapiens
[2] = tested on: mouse ascites sarcoma S180; assay: Efficacy studies of anti-tumor in vivo, S180 sarcoma in Kunming mice; conditions: for Difference from the control group in S180 sarcoma growth: Kunming mice, S180, p<0.05; for Growth Inhibition of S180 sarcoma, inhibition rate: mouse, in vivo, ip
[3] = MCF7, 48 h, read-out: Growth Inhibition of cell line IC50, MCF7
[4] = MCF7, read-out: IC50, anti-proliferative effect on MCF7 cells

Compound | IC50 [1, 3] | IC50 [1, 4] | Difference from the control group in S180 sarcoma growth [2] | Growth Inhibition of S180 sarcoma, inhibition rate [2]
O=C1C2CC3CC(C2)OC1C3 (stereo not shown) [Example 43, 2-oxaadamantan-4-one] | 44.2 µg/mL (≈ 291 µM) | 44.2 µg/mL (≈ 291 µM) | – | –
COC(=O)C12C3CC4CC5C3CC(CC5C1(C(=O)OC)N4C)N2C [Example 107, dimethanol decahydro-2,8,4,6-(cyclobutyl[1,2,3,4]dimethyl) naphthalene-2,4,4a,6-dicarboxylate] | – | – | significant difference | –
COc1cc(C23CN4CN(C2)CC(c2cc(OC)c(OC)c(OC)c2)(C4)C3=O)cc(OC)c1OC [Example 62, (1r,3r,5r,7r)-5,7-bis(3,4,5-trimethoxyphenyl)-1,3-diazaadamantan-6-one] | 6.94 µg/mL (≈ 14.3 µM) | 6.94 µg/mL (≈ 14.3 µM) | – | –
O=C(CN1C(=O)C2C3CC(O)C(O3)C2C1=O)NC12CC3CC(CN(C3)C1)C2 (stereo not shown) [Example 7, N-((1r,3r)-1-azaadamantan-3-yl)-2-(5-hydroxy-1,3-dioxohexahydro-1H-4,7-epoxyisoindol-2(3H)-yl)acetamide] | – | – | significant difference | –
Nc1ccc2c(c1)C(=O)N(CC(=O)NC13CC4CC(CN(C4)C1)C3)C2=O [Example 9, N-((1r,3r,5R,7S)-1-azaadamantan-3-yl)-2-(5-amino-1,3-dioxoisoindolin-2-yl)acetamide] | – | – | significant difference | –
O=C(CN1C(=O)c2ccc([N+](=O)[O-])cc2C1=O)NC12CC3CC(CN(C3)C1)C2 [Example 8, N-((1r,3r,5R,7S)-1-azaadamantan-3-yl)-2-(5-nitro-1,3-dioxoisoindolin-2-yl)acetamide] | – | – | significant difference | –
O=C(Cn1cnc(-c2ccccc2)c1-c1ccccc1)NC12CC3CC(CC(C3)C1)C2 [Example 11, N-((1s,3s)-adamantan-1-yl)-2-(4,5-diphenyl-1H-imidazol-1-yl)acetamide] | – | – | significant difference | –
OC12CC3CC(CC(C3)O1)C2 [Example 47, 2-oxaadamantan-1-ol] | 56.3 µg/mL (≈ 365 µM) | 56.3 µg/mL (≈ 365 µM) | – | –
(1R,3S,5R,7S,Z)-1-hydroxy-3-methyl-2- oxaadamantan-6-one oxime [Example 74] | – | – | – | 20%
CCCCCNC12CN3CN(CN(C3)C1)C2 [Example 68, (1s,3s,5s)-N-pentyl-1,3,5-triazaadamantan-7-amine] | 2.28 µg/mL (≈ 10.2 µM) | 2.28 µg/mL (≈ 10.2 µM) | significant difference | –
(1R,3R,5S,7S,Z)-1-azaadamantan-4- one oxime [Example 55] | – | – | – | 32%
